Data: patent US20040106802A1, “Novel compounds and therapeutic uses thereof” (TORRENT PHARMACEUTICALS LTD., priority 2002, published 2004)
Counter-ions that a name gives are not always drawn. Like-named read-outs stand apart in the source and are kept apart here.

Experiments:
[1] = biological target: T1, Porcine DPP-IV (Sus scrofa, UniProt P22411); test: Assay of DPP-IV enzyme inhibitory activity (spectrophotometric, Gly-Pro-pNA cleavage); format: biochemical
T1 construct: purchased Sigma-Aldrich Germany
T1 sequence (P22411 whole entry): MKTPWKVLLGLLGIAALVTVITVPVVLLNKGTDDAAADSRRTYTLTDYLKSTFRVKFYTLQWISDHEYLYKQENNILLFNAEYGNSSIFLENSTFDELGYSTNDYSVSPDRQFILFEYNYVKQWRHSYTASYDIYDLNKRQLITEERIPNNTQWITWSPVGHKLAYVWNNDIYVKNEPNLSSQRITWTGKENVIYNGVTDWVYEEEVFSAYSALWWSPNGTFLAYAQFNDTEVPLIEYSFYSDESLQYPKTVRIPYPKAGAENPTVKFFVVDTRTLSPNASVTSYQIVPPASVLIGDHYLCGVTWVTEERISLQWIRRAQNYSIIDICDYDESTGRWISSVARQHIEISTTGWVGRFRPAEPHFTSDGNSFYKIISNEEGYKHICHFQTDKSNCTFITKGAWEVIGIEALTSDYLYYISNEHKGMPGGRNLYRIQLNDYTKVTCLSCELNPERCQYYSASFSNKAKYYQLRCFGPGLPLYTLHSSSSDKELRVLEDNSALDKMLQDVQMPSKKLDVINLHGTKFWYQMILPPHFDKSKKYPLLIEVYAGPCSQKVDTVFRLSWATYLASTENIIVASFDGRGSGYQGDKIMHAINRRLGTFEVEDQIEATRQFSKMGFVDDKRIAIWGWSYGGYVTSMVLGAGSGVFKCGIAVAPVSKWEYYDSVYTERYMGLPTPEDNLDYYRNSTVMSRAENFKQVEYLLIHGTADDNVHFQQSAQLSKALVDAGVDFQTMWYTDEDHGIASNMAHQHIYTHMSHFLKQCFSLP

[2] = In-vitro free radical scavenging activity using DPPH free radical; conditions: 30° C., 30 minutes, 515 nm
From the text: Free Radical Scavenging Activity:
To determine the in-vitro free radical scavenging activity of compounds of general formula-I on 2,2,-diphenyl-1-picrylhydrazyl (DPPH)radical (Ref: W. Brand-Williams, M. E. Cuvelier, C. Berset “Use of a free radical method to evaluate antioxidant activity”, Lebensm.- Wiss.u.Technol.,1995,28,Nr.1:25-30).
To evaluate the free radical scavenging activity of compounds they are allowed to react with stable radical DPPH*. In its radical form, DPPH* absorbed at the characteristic wave length of 515 nm, but upon reduction by an antioxidant or radical scavenger (AH), the absorption disappears.
10^−4M solution of DPPH* was prepared in methanol.
Various concentrations (10 mM, 1 mM, 0.5 mM, 0.25 mM and 0.125 mM) of drug solutions were prepared in methanol.
900 μl of DPPH radical solution was added to an eppendorf tube. To it was added 100 μl of methanol.
900 μl of DPPH radical solution was added to an eppendorf tube. To it was added 100 μl of various concentrations of drug solutions in methanol.
The absorbance of control and test samples was recorded after incubation at 30° C. for 30 minutes, at 515 nm taking methanol as blank.
The percent antioxidant activity was calculated according to the formula:
% Antioxidant activity=100−[O.D of test sample/O.D of control*100]

[3] = Porcine DPP-IV, Gly-Pro-pNA substrate, 30° C., mean ± SD of three experiments except compound Nos. 133 & 139, read-out: IC50 (μM) Mean ± SD, inhibitory activity on DPP-IV enzyme activity
[4] = read-out: dipeptidyl peptidase-IV inhibitory IC50's in the range

## COc1ccc(S(=O)(=O)NC2CCC(N(N)CC(=O)N3CSCC3C#N)CC2)cc1.O=C(O)C(F)(F)F (stereo not drawn) [Compound No. 92, 3-[1-oxo-2-[1-(1-(4-methoxyphenylsulphonyl)aminocyclohexan-4-yl)]hydrazino]ethyl-4-cyanothiazolidine trifluoroacetate]
[1]; [3]
  IC50: 1.33 ± 0.124 µM
[2]; Concentration 12.5 μM
  % Activity (antioxidant, DPPH): 10.07%
[2]; Concentration 25 μM
  % Activity (antioxidant, DPPH): 30.36%
[2]; Concentration 50 μM
  % Activity (antioxidant, DPPH): 58.48%
[2]; Concentration 100 μM
  % Activity (antioxidant, DPPH): 78.77%

## N#CC1CSCN1C(=O)CN(N)C1CCC(NCc2ccc(F)cc2)CC1 (stereo not drawn) [Compound No. 93, 3-[1-oxo-2-[1-(1-(4-fluorobenzyl)aminocyclohexan-4-yl)]hydrazino]ethyl-4-cyanothiazolidine bis-trifluoroacetate]
[1]; [3]
  IC50: 5.56 ± 0.18 µM
[2]; Concentration 12.5 μM
  % Activity (antioxidant, DPPH): 15.18%
[2]; Concentration 25 μM
  % Activity (antioxidant, DPPH): 28.08%
[2]; Concentration 50 μM
  % Activity (antioxidant, DPPH): 44.13%
[2]; Concentration 100 μM
  % Activity (antioxidant, DPPH): 64.24%

## N#CC1CSCN1C(=O)CN(N)C1CCN(Cc2ccc(F)cc2)CC1 (stereo not drawn) [Compound No. 94, 3-[1-oxo-2-[1-(1-(4-fluorobenzyl)-piperidin-4-yl)]hydrazino]ethyl-4-cyanothiazolidine bis-trifluoroacetate]
[1]; [3]
  IC50: 2.23 ± 0.08 µM
[2]; Concentration 12.5 μM
  % Activity (antioxidant, DPPH): 9.34%
[2]; Concentration 25 μM
  % Activity (antioxidant, DPPH): 24.05%
[2]; Concentration 50 μM
  % Activity (antioxidant, DPPH): 39.04%
[2]; Concentration 100 μM
  % Activity (antioxidant, DPPH): 55.85%

## CC(C)(C)C(=O)NC1CCC(N(N)CC(=O)N2CSCC2C#N)CC1.O=C(O)C(F)(F)F (stereo not drawn) [Compound No. 96, 3-[1-oxo-2-[1-(1-(trimethylacetamido)cyclohexan-4-yl)]hydrazino]ethyl-4-cyanothiazolidine trifluoroacetate]
[1]; [3]
  IC50: 4 ± 0.144 µM
[2]; Concentration 12.5 μM, 12.5 µM
  % Activity (antioxidant, DPPH): 19.11%
[2]; Concentration 25 μM, 25 µM
  % Activity (antioxidant, DPPH): 34.43%
[2]; Concentration 50 μM, 50 µM
  % Activity (antioxidant, DPPH): 48.83%
[2]; Concentration 100 μM, 100 µM
  % Activity (antioxidant, DPPH): 63.26%

## CCNN(CC(=O)N1CSCC1C#N)C1CCC(NS(C)(=O)=O)CC1 (stereo not drawn) [Compound No. 97, 3-[1-oxo-2-[1-(1-(methanesulphonyl)aminocyclohexan-4-yl)-2-ethyl]hydrazino]ethyl-4-cyanothiazolidine]
[1]; [3]
  IC50: 1.03 ± 0.07 µM
[2]; Concentration 12.5 μM
  % Activity (antioxidant, DPPH): 18.06%
[2]; Concentration 25 μM
  % Activity (antioxidant, DPPH): 38.30%
[2]; Concentration 50 μM
  % Activity (antioxidant, DPPH): 66.99%
[2]; Concentration 100 μM
  % Activity (antioxidant, DPPH): 91.67%

## CC(C)(C)C(=O)NC1CCC(N(N)CC(=O)N2CSCC2C#N)CC1.O=C(O)C(F)(F)F (stereo not drawn) [Compound No. 98, 3-[1-oxo-2-[(1-(trimethylacetamido)cyclohexan-4-yl)]hydrazino]ethyl-4-cyanothiazolidine trifluoroacetate]
[1]; [3]
  IC50: 0.71 ± 0.01 µM
[2]; Concentration 12.5 μM, 12.5 µM
  % Activity (antioxidant, DPPH): 21.99%
[2]; Concentration 25 μM, 25 µM
  % Activity (antioxidant, DPPH): 40.77%
[2]; Concentration 50 μM, 50 µM
  % Activity (antioxidant, DPPH): 59.21%
[2]; Concentration 100 μM, 100 µM
  % Activity (antioxidant, DPPH): 73.35%

## N#Cc1ccc(NC(=O)CN2CCC(N(N)CC(=O)N3CSCC3C#N)CC2)cc1 (stereo not drawn) [Compound No. 99, 3-[1-oxo-2-[1-(1-(2-oxo-2-(4-cyanophenyl)aminoethyl)piperidin-4-yl)]hydrazino]ethyl-4-cyanothiazolidine bis-trifluoroacetate]
[1]; [3]
  IC50: 0.2 ± 0.04 µM
[1]; [4]
  IC50: 0.088 to 0.25 µM
[2]; Concentration 12.5 μM
  % Activity (antioxidant, DPPH): 15.12%
[2]; Concentration 25 μM
  % Activity (antioxidant, DPPH): 24.87%
[2]; Concentration 50 μM
  % Activity (antioxidant, DPPH): 39.13%
[2]; Concentration 100 μM
  % Activity (antioxidant, DPPH): 53.33%

## CCNN(CC(=O)N1CSCC1C#N)C1CCN(CC(=O)Nc2ccc(Cl)cn2)CC1 (stereo not drawn) [Compound No. 101, 3-[1-oxo-2-[1-(1-(2-oxo-2-(5-chloropyridin-2-yl)aminoethyl)piperidin-4-yl)]-2 ethylhydrazino]ethyl-4-cyanothiazolidine tris-hydrochloride]
[1]; [3]
  IC50: 0.488 ± 0.017 µM
[2]; Concentration 12.5 μM
  % Activity (antioxidant, DPPH): 20.41%
[2]; Concentration 25 μM
  % Activity (antioxidant, DPPH): 31.00%
[2]; Concentration 50 μM
  % Activity (antioxidant, DPPH): 32.19%
[2]; Concentration 100 μM
  % Activity (antioxidant, DPPH): 61.15%

## N#CC1CSCN1C(=O)CN(N)C1CCN(CC(=O)Nc2ccc(C(F)(F)F)cc2)CC1 (stereo not drawn) [Compound No. 102, 3-[1-oxo-2-[-1-(1-(2-oxo-2(4-trifluorophenyl)aminoethyl)piperidin-4-yl)]hydrazino]ethyl-4-cyanothiazolidine bis-trifluoroacetate]
[1]; [3]
  IC50: 0.308 ± 0.06 µM
[2]; Concentration 12.5 μM
  % Activity (antioxidant, DPPH): 20.90%
[2]; Concentration 25 μM
  % Activity (antioxidant, DPPH): 29.56%
[2]; Concentration 50 μM
  % Activity (antioxidant, DPPH): 34.26%
[2]; Concentration 100 μM
  % Activity (antioxidant, DPPH): 50.15%

## N#CC1CSCN1C(=O)CN(N)C1CCN(CC(=O)NC23CC4CC(CC(C4)C2)C3)CC1 (stereo not drawn) [Compound No. 103, 3-[1-oxo-2-[1-(1-(2-oxo-2(-adamant-1-yl)aminoethyl)piperidin-4-yl)]hydrazino]ethyl-4-cyanothiazolidine bis-trifluoroacetate]
[1]; [3]
  IC50: 0.523 ± 0.017 µM
[2]; Concentration 12.5 μM
  % Activity (antioxidant, DPPH): 20.41%
[2]; Concentration 25 μM
  % Activity (antioxidant, DPPH): 40.80%
[2]; Concentration 50 μM
  % Activity (antioxidant, DPPH): 44.09%
[2]; Concentration 100 μM
  % Activity (antioxidant, DPPH): 54.81%

## N#CC1CSCN1C(=O)CN(N)C1CCN(CC(=O)Nc2ncccn2)CC1 (stereo not drawn) [Compound No. 106, 3 [2-oxo-2-[1-(1-(2-oxo-2(pyrimidin-2-yl)aminoethyl)piperidin-4-yl)]hydrazino]ethyl-4-cyanothiazolidine tris-trifluoroacetate]
[1]; [3]
  IC50: 0.143 ± 0.02 µM
[2]; Concentration 12.5 μM
  % Activity (antioxidant, DPPH): 24.86%
[2]; Concentration 25 μM
  % Activity (antioxidant, DPPH): 42.52%
[2]; Concentration 50 μM
  % Activity (antioxidant, DPPH): 70.39%
[2]; Concentration 100 μM
  % Activity (antioxidant, DPPH): 72.86%

## N#CC1CSCN1C(=O)CN(N)C1CCN(CC(=O)NC2CC2)CC1 (stereo not drawn) [Compound No. 108, 3[1-oxo-2-[1-(1-(2-oxo-2-(cyclopropyl)aminoethyl)piperidin-4-yl)]hydrazino]ethyl-4-cyanothiazolidine bis-trifluoroacetate]
[1]; [3]
  IC50: 0.236 ± 0.025 µM
[1]; [4]
  IC50: 0.088 to 0.25 µM
[2]; Concentration 12.5 μM
  % Activity (antioxidant, DPPH): 20.19%
[2]; Concentration 25 μM
  % Activity (antioxidant, DPPH): 26.25%
[2]; Concentration 50 μM
  % Activity (antioxidant, DPPH): 34.71%
[2]; Concentration 100 μM
  % Activity (antioxidant, DPPH): 52.72%

## CS(=O)(=O)NC1CCC(N(N)CC(=O)N2CSCC2C#N)CC1 (stereo not drawn) [Compound No. 114, 3-[1-oxo-2-(1-(1-methanesulphonylamino-4-cyclohexyl)hydrazino)]ethyl-4-cyanothiazolidine hydrochloride]
[1]; [3]
  IC50: 0.397 ± 0.02 µM
[2]; Concentration 12.5 μM
  % Activity (antioxidant, DPPH): 19.23%
[2]; Concentration 25 μM
  % Activity (antioxidant, DPPH): 39.37%
[2]; Concentration 50 μM
  % Activity (antioxidant, DPPH): 78.16%
[2]; Concentration 100 μM
  % Activity (antioxidant, DPPH): 92.76%

## N#CC1CSCN1C(=O)CN(N)C1CCN(CC(=O)Nc2ncc(Br)s2)CC1 (stereo not drawn) [compound 117, 3-[1-oxo-2-(1-(1-(2-oxo-2-(5-bromothiazol-2-yl)aminoethyl)piperidine-4-yl))hydrazino]ethyl-4-cyanothiazolidine, tris-trifluoroacetate]
[1]; [3]
  IC50: 0.226 ± 0.005 µM
[2]; Concentration 100 μM
  % Activity (antioxidant, DPPH): 53.44%
